Results published in US11076595B2, “1-(n,n-disubstituted carbamoyl) 4-(substituted sulfonyl)triazolin-5-one derivative, 4-(n,n-disubstituted carbamoyl) 1-(substituted sulfonyl)triazolin-5-one derivative, and herbicide containing said derivative as active ingredient” (HOKKO CHEMICAL INDUSTRY CO., LTD., priority 2017, dated 2021).

Columns and labels:
Format in all cases: in vivo
Echinochloa crus-galli [1] = assay: Test Example 11: herbicidal effect test by soil treatment in paddy field; details: 120 g/10a active ingredient, 14 days after treatment
Summary of the method: (§1)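 Pre-emergence paddy test, 120 g a.i./10 are, emulsifiable concentrate diluted in water and added dropwise to ~3 cm flood water right after sowing (30 seeds/species, 0–1 cm depth, fertilized puddled soil). Greenhouse; 2 replicates; dry-weight suppression (%) vs untreated, day 14.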

Lindernia pyxidaria [2] = assay: as above; details: 120 g/10a active ingredient, 14 days after treatment
Summary of the method: as §1

Monochoria vaginalis [3] = assay: as above; details: 120 g/10a active ingredient, 14 days after treatment
Summary of the method: as §1

Scirpus juncoides [4] = assay: as above; details: 120 g/10a active ingredient, 14 days after treatment
Summary of the method: as §1

Echinochloa crus-galli [5] = assay: Test Example 12: herbicidal effect test by treatment during growing period in paddy field; details: 120 g/10a; treatment seven days after sowing in flooded paddy pot; assessed 14 days after treatment
Summary of the method: (§2)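 Paddy soil + NPK 17:17:17, puddled; 30 seeds/species sown 0–1 cm; flooded ~3 cm, greenhouse. Day 7 post-sowing: EC diluted in water, applied dropwise into water, 120 g a.i./10 are. Day 14 post-treatment: dry weight vs untreated → % suppression; n=2.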

Lindernia pyxidaria [6] = assay: as above; details: 120 g/10a; treatment seven days after sowing in flooded paddy pot; assessed 14 days after treatment
Summary of the method: as §2

Monochoria vaginalis [7] = assay: as above; details: 120 g/10a; treatment seven days after sowing in flooded paddy pot; assessed 14 days after treatment
Summary of the method: as §2

Scirpus juncoides [8] = assay: as above; details: 120 g/10a; treatment seven days after sowing in flooded paddy pot; assessed 14 days after treatment
Summary of the method: as §2

Chenopodium album = assay: Test Example 14: herbicidal effect test by foliage treatment in upland field; details: 7 days after sowing, 120 g/10a, 14 days after treatment
Description: (§3) A pot having a size of 36 cm^2 was filled with field soil (alluvial soil) and after uniformly mixing the soil of the surface layer of 1 cm with 20 grains of each weed seed of crabgrass, Echinochloa crus-galli, Chenopodium album and Amaranthus viridis, the surface layer was pressed lightly. Seven Days after the sowing, an emulsifiable concentrate prepared according to Formulation Example 15 by using the compound shown in Table 12 below was diluted with water, and the water-diluted formulation was sprayed on the soil surface at a ratio of 100 liter per 10 are. The application rate of the active ingredient, by conversion, corresponded to 120 g per 10 are. Fourteen Days after the formulation treatment, the herbicidal effect was evaluated by the same criteria as in Test Example 11.

crabgrass = assay: as above; details: 7 days after sowing, 120 g/10a, 14 days after treatment
Description: as §3

Amaranthus viridis = assay: as above; details: 7 days after sowing, 120 g/10a, 14 days after treatment
Description: (§4) This test was performed with two replications per one formulation concentration plot, and 14 days after the formulation treatments, the weed suppression rate (%) was determined according to the following equation (Math. 2). Weed suppression rate (%)=(1−average dry weight (g) of plants in treated plots/average dry weight (g) of plants in untreated plots)×100 [Math. 2]
as §3

Echinochloa crus-galli [9] = assay: as above; details: 7 days after sowing, 120 g/10a, 14 days after treatment
Description: as §4, §3

Compound	Weed suppression rate (%) Echinochloa crus-galli (Echinochloa crus-galli [1])	Weed suppression rate (%) Lindemia pyxidaria (Lindernia pyxidaria [2])	Weed suppression rate (%) Monochoria vaginalis (Monochoria vaginalis [3])	Weed suppression rate (%) Scirpus juncoides (Scirpus juncoides [4])	Weed suppression rate (%) Echinochloa crus-galli (Echinochloa crus-galli [5])	Weed suppression rate (%) Lindemia pyxidaria (Lindernia pyxidaria [6])	Weed suppression rate (%) Monochoria vaginalis (Monochoria vaginalis [7])	Weed suppression rate (%) Scirpus juncoides (Scirpus juncoides [8])	herbicidal effect, Chenopodium album (Chenopodium album)	herbicidal effect, Crabgrass (crabgrass)	herbicidal effect, Amaranthus viridis (Amaranthus viridis)	herbicidal effect, Echinochloa crus-galli (Echinochloa crus-galli [9])
CC(C)N(C(=O)n1cnn(S(=O)(=O)C(C)C)c1=O)c1ccc(C(F)(F)F)cc1F [Compound 11-76]	100%	80%	100%	60%	100%	60%	80%	60%	60%	100%	80%	100%
C=CS(=O)(=O)n1ncn(C(=O)N(c2ccc(F)cc2F)C(C)C)c1=O [Compound 11-134]	70%	40%	40%	40%	70%	40%	40%	40%	40%	70%	40%	40%
O=C(N(CC(F)(F)F)c1ccc(F)cc1F)n1cnn(S(=O)(=O)C2CC2)c1=O [Compound 11-144]	100%	90%	80%	100%	100%	100%	100%	100%	60%	80%	80%	80%
CC(C)N(C(=O)n1cnn(S(=O)(=O)C2CC2)c1=O)c1ccc(F)cc1Cl [Compound 11-205]	100%	100%	90%	100%	100%	80%	100%	100%	70%	100%	70%	100%
CC(C)N(C(=O)n1cnn(S(=O)(=O)C2CC2)c1=O)c1ccc(Cl)cc1F [Compound 11-206]	100%	100%	100%	100%	100%	90%	90%	90%	60%	90%	60%	90%
CC(C)N(C(=O)n1cnn(S(=O)(=O)C2CC2)c1=O)c1ccc(Br)cc1Cl [Compound 11-209]	100%	100%	90%	100%	100%	80%	90%	100%	60%	90%	30%	90%
Cc1cc(Cl)ccc1N(C(=O)n1cnn(S(=O)(=O)C2CC2)c1=O)C(C)C [Compound 11-213]	100%	90%	60%	90%	90%	80%	80%	90%	80%	90%	90%	80%
CC(C)N(C(=O)n1cnn(S(=O)(=O)C2CC2)c1=O)c1ccc(C(F)(F)F)cc1F [Compound 11-217]	100%	100%	100%	80%	100%	80%	90%	80%	70%	100%	60%	100%
CC(C)N(C(=O)n1cnn(S(=O)(=O)C2CCCCC2)c1=O)c1cccc(F)c1 [Compound 11-285]	90%	80%	80%	90%	90%	80%	80%	90%	80%	90%	90%	80%
CC(C)N(C(=O)n1cnn(S(=O)(=O)C2CCCCC2)c1=O)c1cccc(F)c1F [Compound 11-293]	100%	100%	100%	100%	100%	100%	100%	100%	70%	100%	60%	90%
CC(C)N(C(=O)n1cnn(S(=O)(=O)C2CCCCC2)c1=O)c1c(F)c(F)cc(F)c1F [Compound 11-299]	100%	100%	70%	100%	100%	80%	100%	100%	60%	100%	60%	100%
